Results from patent US20240317736A1, “DEUTERATED DERIVATIVE AS ATX INHIBITOR, AND APPLICATION THEREOF” (Xizang Haisco Pharmaceutical Co., Ltd., priority 2020, published 2024).
Where two headings read alike, the source gives them in different places.

Columns and labels:
[1] = target: T1, autocrine motility factor (Homo sapiens, UniProt Q13822); assay: Inhibition of LPA formation in mixed ex vivo human plasma; type: biochemical; conditions: 37° C., 2 h
T1 construct: Whole blood was anticoagulated with heparin and centrifuged, and then plasma was collected; from tissue; host or cells: pooled human plasma (heparin-anticoagulated whole blood)
Protocol: Autocrine motility factor is a phosphodiesterase in plasma that converts lysophosphatidylcholine (LPC) to lysophosphatidic acid (LPA). Therefore, the formation of LPA can be used to evaluate the potency of an autocrine motility factor inhibitor. The potency of the compound in mixed ex vivo human plasma was evaluated.
Whole blood was anticoagulated with heparin and centrifuged, and then plasma was collected. 5 μL of gradient-diluted test compounds or DMSO was added to 95 μL of plasma and incubated at 37° C. for 2 h. After that, a stop buffer (40 mM disodium hydrogen phosphate buffer, containing 30 mM of citric acid, pH=4) was added. LPA in plasma was detected by LC-MSMS before and after incubation. In order to determine the concentration of LPA 18:2 or LPA 20:4 in the plasma in study, calibration standard substances at 20000 ng/mL, 10000 ng/mL, 5000 ng/ml, 2000 ng/ml, 1000 ng/mL, 500 ng/mL, 200 ng/ml, 100 ng/mL, 50 ng/ml, 20 ng/mL and 10 ng/ml for LPA 18:2 or LPA 20:4 were prepared by performing serial dilution in butanol. 3 μL of calibration standard solution was added to 27.0 μL of blank plasmas in each 1.5 mL microcentrifuge tube to produce 1× calibration standard substances. 30.0 μL of standard substances or plasma in study was added to each 1.5 mL microcentrifuge tube. 200 μL of butanol (containing 25.0 ng/mL LPA 17:0 for internal control) was added to each 1.5 mL microcentrifuge tube containing the plasma in study or calibration standard substance. Vortex oscillation was performed for 1 min, and centrifugation was performed at 10000 rpm for 10 min. 180 μL of the supernatant was transferred to a 96-well plate, and LC/MS/MS was used together with the standard substance to quantify the concentration of LPA 18:2 in the plasma. In short, 8 μL of the solution was injected, and LC-MS/MS analysis using an ACQUITY UPLC BEH C18 column (2.1×50 mm, 1.7 μm) was performed, wherein mobile phase A [20 mM NH4OAC aqueous solution (0.1% FA)] and mobile phase B [5 mM NH4OAC aqueous solution/0.2% FA in ACN=5:95] were used. The parameters of a mass spectrometer for LPA 18:2 were optimized by means of deprotonation of molecular ions. For LPA 18:2 at m/z 433.2([M−H]−), LPA 20:4 at 457.2, and LPA 18:2 and LPA 20:4 both at m/z 152.8, abundant product ions were obtained. Quantitative data were obtained in a multiple reaction monitoring (MRM) negative electrospray ionization mode.
The inhibition rates of compounds at different concentrations on LPA formation were determined by comparing the changes of LPA levels in incubated and unincubated plasma. The IC50 of the compounds was calculated as a calculation inhibition rate, and the relative concentration at each well=the concentration at each well−the average concentration at baseline.
Inhibition rate %=(average relative concentration at control well−average relative concentration at test well)/average relative concentration at control well×100%. The curve was plotted with the inhibition rates as a y axis and the compound concentrations as an x axis, and fitting was performed by GraphPad Prism7.0 using log (inhibitor) and normalized response (variable slope).

[2] = Pharmacokinetic test in mice; type: in vivo; conditions: male, C57, mouse, plasma; for Cmax: read-out: C0 or Cmax
Protocol: Test objective: the pharmacokinetic characteristics and bioavailability of test compounds in mice were evaluated.
Test animals: thirty-six C57 male mice, about 25 g, 6-8 weeks old, purchased from Chengdu Ddossy Experimental Animals Co., Ltd., with the production license number of SCXK (CHUAN) 2020-030.
Vehicle for intravenous administration: 5% DMA+5% Solutol+90% Saline; vehicle for intragastric administration: 0.5% MC
(§1) Before and after the administration, 0.06 mL of blood was taken from the orbits under isoflurane anaesthesia and placed in an EDTAK2 centrifuge tube. The blood was centrifuged at 5000 rpm at 4° C. for 10 min, and plasma was collected. Time points for blood collection: 0 min, 5 min, 15 min, 30 min, 1 h, 2 h, 4 h, 6 h, 8 h, 10 h and 24 h. Before analysis and detection, all plasma samples were stored at −80° C.

[3] = Pharmacokinetic test in dogs; type: in vivo, male beagles; conditions: male, beagle, dog, plasma; for Cmax: read-out: C0 or Cmax
Protocol: Test objective: the pharmacokinetic characteristics and bioavailability of test compounds in dogs were evaluated.
Test animals: twelve male beagles, 8-10 kg, 0.5-1.5 years old, purchased from Beijing Marshall Biotechnology Co. Ltd., with the production license number of SCXK (JING) 2016-001.
Vehicle for intravenous administration: 5% DMSO+5% Solutol+90% Saline; • vehicle for intragastric administration: 1% DMSO+1% Solutol+98% (0.5% MC);
as §1, with “the administration, 1.0 mL of” for “the administration, 0.06 mL of”, “from the veins of the forelimbs and placed” for “from the orbits under isoflurane anaesthesia and placed”, “h, 10 h, 12 h and” for “h, 10 h and”

[4] = Pharmacokinetic test in monkeys; type: in vivo, Cynomolgus macaques; conditions: male, cynomolgus monkey, plasma; for Cmax: read-out: C0 or Cmax
Protocol: Test objective: the pharmacokinetic characteristics and bioavailability of test compounds in monkeys were evaluated.
Test animals: twelve male Cynomolgus macaques, 2.4-5.9 kg, 3-5.5 years old, purchased from Suzhou Xishan Zhongke Laboratory Animal Co., Ltd., with the production license number of SCXK (SU) 2018-0001.
Vehicle for intravenous administration: 5% DMSO+5% Solutol+90% Saline; • vehicle for intragastric administration: 1% DMSO+1% Solutol+98% (0.5% CMC-Na)
as §1, with “the administration, 1.0 mL of” for “the administration, 0.06 mL of”, “from the veins of the forelimbs and placed” for “from the orbits under isoflurane anaesthesia and placed”, “h, 10 h, 12 h and” for “h, 10 h and”

hERG potassium channel = hERG potassium channel (Homo sapiens, UniProt Q12809); assay: cell-based
hERG potassium channel, sequence (Q12809 whole entry): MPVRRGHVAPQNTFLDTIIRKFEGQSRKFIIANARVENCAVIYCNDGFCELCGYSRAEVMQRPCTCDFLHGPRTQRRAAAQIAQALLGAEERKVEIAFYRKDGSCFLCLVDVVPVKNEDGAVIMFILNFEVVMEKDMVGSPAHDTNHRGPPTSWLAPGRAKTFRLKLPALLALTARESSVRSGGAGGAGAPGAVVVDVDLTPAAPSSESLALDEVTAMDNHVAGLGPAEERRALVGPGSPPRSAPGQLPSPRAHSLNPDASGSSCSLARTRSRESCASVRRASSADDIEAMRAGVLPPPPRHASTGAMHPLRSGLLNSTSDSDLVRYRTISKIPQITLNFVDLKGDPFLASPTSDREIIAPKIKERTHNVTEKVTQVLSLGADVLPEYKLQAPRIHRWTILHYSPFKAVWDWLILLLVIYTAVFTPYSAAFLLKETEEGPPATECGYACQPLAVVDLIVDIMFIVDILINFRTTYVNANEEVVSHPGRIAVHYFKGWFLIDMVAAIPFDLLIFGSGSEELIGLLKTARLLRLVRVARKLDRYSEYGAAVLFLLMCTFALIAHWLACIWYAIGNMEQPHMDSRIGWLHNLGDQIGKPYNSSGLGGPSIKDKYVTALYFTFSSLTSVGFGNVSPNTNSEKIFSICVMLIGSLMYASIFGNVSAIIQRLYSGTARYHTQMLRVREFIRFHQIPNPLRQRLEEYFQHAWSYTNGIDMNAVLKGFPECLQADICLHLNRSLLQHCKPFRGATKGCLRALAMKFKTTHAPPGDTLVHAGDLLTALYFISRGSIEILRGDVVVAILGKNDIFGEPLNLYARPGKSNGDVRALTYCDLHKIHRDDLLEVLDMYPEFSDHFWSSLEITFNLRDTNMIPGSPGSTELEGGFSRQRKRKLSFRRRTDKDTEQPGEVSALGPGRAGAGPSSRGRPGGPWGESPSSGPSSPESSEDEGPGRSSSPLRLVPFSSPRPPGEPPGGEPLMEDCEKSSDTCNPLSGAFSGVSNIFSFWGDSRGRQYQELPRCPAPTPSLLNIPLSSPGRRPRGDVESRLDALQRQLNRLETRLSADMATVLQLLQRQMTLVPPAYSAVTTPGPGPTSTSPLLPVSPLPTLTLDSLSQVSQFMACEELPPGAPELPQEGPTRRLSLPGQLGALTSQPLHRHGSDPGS
Protocol: The effect of the example compounds on the current of an hERG potassium channel (human Ether-à-go-go Related Gene potassium channel) was tested by 10 means of an electrophysiological manual patch-clamp method.
HEK293 cell lines stably expressing hERG ion channels were purchased from Invitrogen.
A test compound was firstly dissolved in DMSO and prepared into a stock solution with a final concentration of 30 mM. […] Five working solutions with different gradient concentrations were used to determine the potential inhibitory effect of the compound on the hERG potassium channel and used to fit a dose-response curve and calculate IC50.
A small slide carrying HEK293 cells in a culture dish was placed in a perfusion tank on a micromanipulator. • 2. […] The peak value of the tail current was the magnitude of hERG currents. • 9 The hERG currents used to detect the test compounds were continuously recorded for 120 seconds prior to administration, thereby evaluating the stability of test cells generating hERG currents. […] The inhibitory effects of the test compounds on hERG currents were tested as follows: firstly, the hERG current measured in the extracellular fluid containing 0.1% DMSO was used as a test baseline. […] Upon completion of each perfusion, waiting about 5 min allowed the compounds to be fully acted on the cells, and the hERG currents were recorded synchronously. […]

IC50 ([1]; LPA 18:2 by LC-MS/MS, read-out: IC50 for inhibiting LPA formation (18:2)): 42.7 nM
IC50 ([1]; LPA 20:4 by LC-MS/MS, read-out: IC50 for inhibiting LPA formation (20:4)): 44.5 nM
AUC ([2]; IV 1 mg/kg): 1490 ng·h/mL
half-life ([2]; IV 1 mg/kg): 1.56 h
Cmax ([2]; IV 1 mg/kg): 1110 ng/mL
AUC ([2]; PO 10 mg/kg): 9600 ng·h/mL
Tmax ([2]; PO 10 mg/kg): 0.25 h
half-life ([2]; PO 10 mg/kg): 2.14 h
bioavailability ([2]; PO 10 mg/kg vs IV 1 mg/kg): 64.5%
Cmax ([2]; PO 10 mg/kg): 1300 ng/mL
AUC ([3]; IV 1 mg/kg): 6840 ± 883 ng·h/mL
half-life ([3]; IV 1 mg/kg): 6.96 ± 1.5 h
Cmax ([3]; IV 1 mg/kg): 1490 ± 451 ng/mL
AUC ([3]; PO 2 mg/kg): 15900 ± 2980 ng·h/mL
Tmax ([3]; PO 2 mg/kg): 1.67 ± 0.58 h
half-life ([3]; PO 2 mg/kg): 7.19 ± 0.75 h
bioavailability ([3]; PO 2 mg/kg vs IV 1 mg/kg): 116 ± 22%
Cmax ([3]; PO 2 mg/kg): 1620 ± 176 ng/mL
AUC ([4]; IV 1 mg/kg): 2010 ± 621 ng·h/mL
half-life ([4]; IV 1 mg/kg): 2.96 ± 1 h
Cmax ([4]; IV 1 mg/kg): 1040 ± 116 ng/mL
AUC ([4]; PO 5 mg/kg): 3120 ± 492 ng·h/mL
Tmax ([4]; PO 5 mg/kg): 1.33 ± 0.58 h
half-life ([4]; PO 5 mg/kg): 4.02 ± 0.59 h
Cmax ([4]; PO 5 mg/kg): 657 ± 170 ng/mL
Structure (SMILES): [2H]C([2H])([2H])N(c1nc(-c2ccc(F)cc2)c(C#N)s1)c1c(CC)nn2cc(F)c(N3CCN(CC(=O)N4CC(O)C4)CC3)cc12 [Compound 3, 2-((2-ethyl-6-fluoro-5-(4-(2-(3-hydroxyazetidin-1-yl)-2-oxoethyl)piperazin-1-yl)pyrazolo[1,5-a]pyridin-3-yl)(methyl-d3)amino)-4-(4-fluorophenyl)thiazole-5-carbonitrile]
IC50 (hERG potassium channel): 23100 nM
